Assay results reported in patent US20230092001A1, “FURANEOL GLYCOSIDE COMPOUND, PHARMACEUTICAL COMPOSITION THEREOF, PREPARATION METHOD THEREFOR, AND APPLICATION THEREOF” (priority 2019, published 2023).

Assays:
[1] = system: ulcerative colitis model (dextran sodium sulphate); assay: Effect Example 3: therapeutic effect on ulcerative colitis, dextran sodium sulphate model, oral gavage, 7 days; format: in vivo, C57 mice; settings: 40 mg/kg oral gavage; for Average colon length of mice: day 7
Method: Fifty 10-week-old male C57 mice, SPF class animal house, temperature 20-26° C., humidity 40%-70%, alternating light-dark periods (12 h/12 h).
(§1) Quarantine-qualified animals with similar weights were selected for the experiment.
Mice in the blank control group were given normal drinking water throughout the experiment. The other 9 groups of mice were given drinking water containing 2% dextran sodium sulphate from day 1 to day 7. All groups were administered by oral gavage once a day according to table 10, until the end of the experiment.
(§2) (1) The mice were weighed daily.
(2) Blood samples were collected from the orbital vein on day 7 and stored at −80° C.
(3) On day 7, the mice were sacrificed by cervical vertebra dislocation, the colon was removed and a small amount of fecal was taken from the colon and left as a sample. The colon length and colon weight were measured. A portion of the colon and the fecal sample was stored at −80° C.

[2] = system: ulcerative colitis model (dextran sodium sulphate); assay: Effect example 2: therapeutic effect on ulcerative colitis, dextran sodium sulphate model, oral gavage, 14 days; format: in vivo, C57 mice; settings: for Average colon length of mice: day 14; for Weight effect compared with the positive control drug SASP (in words): 40 mg/kg oral gavage vs SASP 30 mg/kg oral gavage; for Effect on the reduction of weight in mice (in words): 40 mg/kg oral gavage, vs ulcerative colitis model group
Method: Thirty-five 10-week-old male C57 mice, SPF class animal house, temperature 20-26° C., humidity 40%-70%, alternating light-dark periods (12 h/12 h).
as §1
Mice in the blank control group were given normal drinking water throughout the experiment. The other 6 groups of mice were given drinking water containing 2% dextran sodium sulphate from day 1 to day 5, normal drinking water from day 6 to day 7, drinking water containing 2% dextran sodium sulphate from day 8 to day 12, and normal drinking water from day 13 to day 14. The experiment ended on day 14. All groups were administered by oral gavage once a day according to table 7, until the end of the experiment on day 14.
as §2
(2) Blood samples were collected from the orbital vein on day 14 and stored at −80° C.
(3) On day 14, the mice were sacrificed by cervical vertebra dislocation, the colon was removed and a small amount of fecal was taken from the colon and left as a sample. The colon length and colon weight were measured. A portion of the colon and the fecal sample was stored at −80° C.

[3] = Day 1, treatment group 40 mg/kg oral gavage
[4] = Day 2, treatment group 40 mg/kg oral gavage
[5] = Day 3, treatment group 40 mg/kg oral gavage
[6] = Day 4, treatment group 40 mg/kg oral gavage
[7] = Day 5, treatment group 40 mg/kg oral gavage
[8] = Day 6, treatment group 40 mg/kg oral gavage
[9] = Day 7, treatment group 40 mg/kg oral gavage
[10] = Day 8, treatment group 40 mg/kg oral gavage
[11] = Day 9, treatment group 40 mg/kg oral gavage
[12] = Day 10, treatment group 40 mg/kg oral gavage
[13] = Day 11, treatment group 40 mg/kg oral gavage
[14] = Day 12, treatment group 40 mg/kg oral gavage
[15] = Day 13, treatment group 40 mg/kg oral gavage
[16] = Day 14, treatment group 40 mg/kg oral gavage
[17] = treatment group 40 mg/kg oral gavage

Row | SMILES | Effect on the colon length (in words) [1] | Average weight of mice ([1]; Day 1) [g] | Average weight of mice ([1]; Day 2) [g] | Average weight of mice ([1]; Day 3) [g] | Average weight of mice ([1]; Day 4) [g] | Average weight of mice ([1]; Day 5) [g] | Average weight of mice ([1]; Day 6) [g] | Average weight of mice ([1]; Day 7) [g] | Average colon length of mice [1] [cm] | Weight effect compared with the positive control drug SASP (in words) [2] | Effect on the reduction of weight in mice (in words) [2] | Average weight of mice [2, 3] [g] | Average weight of mice [2, 4] [g] | Average weight of mice [2, 5] [g] | Average weight of mice [2, 6] [g] | Average weight of mice [2, 7] [g] | Average weight of mice [2, 8] [g] | Average weight of mice [2, 9] [g] | Average weight of mice [2, 10] [g] | Average weight of mice [2, 11] [g] | further results
1 | CC(=O)OC[C@H]1O[C@@H](OC2=C(C)OC(=C3CCNCC3)C2=O)[C@H](OC(C)=O)[C@@H](OC(C)=O)[C@@H]1OC(C)=O [Compound I-11] | can gradually restore the colon length | 21.62 | 21.30 | 21.10 | 20.97 | 20.32 | 19.93 | 19.30 | 6.2 | – | – | – | – | – | – | – | – | – | – | – | –
2 | CC(=O)OC[C@H]1O[C@@H](OC2=C(C)OC(=C3CCCCC3)C2=O)[C@H](OC(C)=O)[C@@H](OC(C)=O)[C@@H]1OC(C)=O [Compound I-9] | can gradually restore the colon length | 21.20 | 21.17 | 20.92 | 20.47 | 20.03 | 19.42 | 19.38 | 6.3 | – | – | – | – | – | – | – | – | – | – | – | –
3 | O=C(O)c1cc(/N=N/c2ccc(S(=O)(=O)Nc3ccccn3)cc2)ccc1O [SASP, salazosulfapyridine, reference compound] | – | – | – | – | – | – | – | – | – | – | – | – | – | – | – | – | – | – | – | – | Average weight of mice ([2]; Day 1, positive control group 30 mg/kg oral gavage): 26.8 g; Average weight of mice ([2]; Day 2, positive control group 30 mg/kg oral gavage): 26.86 g; Average weight of mice ([2]; Day 3, positive control group 30 mg/kg oral gavage): 26.82 g; Average weight of mice ([2]; Day 4, positive control group 30 mg/kg oral gavage): 26.8 g; Average weight of mice ([2]; Day 5, positive control group 30 mg/kg oral gavage): 26.52 g; Average weight of mice ([2]; Day 6, positive control group 30 mg/kg oral gavage): 25.74 g; Average weight of mice ([2]; Day 7, positive control group 30 mg/kg oral gavage): 24.38 g; Average weight of mice ([2]; Day 8, positive control group 30 mg/kg oral gavage): 22.92 g; Average weight of mice ([2]; Day 9, positive control group 30 mg/kg oral gavage): 22.3 g; Average weight of mice ([2]; Day 10, positive control group 30 mg/kg oral gavage): 22.34 g; Average weight of mice ([2]; Day 11, positive control group 30 mg/kg oral gavage): 22.68 g; Average weight of mice ([2]; Day 12, positive control group 30 mg/kg oral gavage): 23.14 g; Average weight of mice ([2]; Day 13, positive control group 30 mg/kg oral gavage): 23.52 g; Average weight of mice ([2]; Day 14, positive control group 30 mg/kg oral gavage): 23.52 g; Average colon length of mice ([2]; positive control group 30 mg/kg oral gavage): 6.0 cm
4 | CC(=O)OC[C@H]1O[C@@H](OC2=C(C)OC(=C(C)C)C2=O)[C@H](OC(C)=O)[C@@H](OC(C)=O)[C@H]1OC(C)=O [Compound I-4, 4-O-[(2,3,4,6-tetra-O-acetyl)-β-D-galactosyl]-5-methyl-2-(1-methylethylidene)-3(2H)-furanone] | – | – | – | – | – | – | – | – | – | better than the positive control drug | significant improvement in the reduction of weight in mice | 26.72 | 26.76 | 26.72 | 26.72 | 26.44 | 26.36 | 24.82 | 23.44 | 23.3 | Average weight of mice [2, 12]: 23.3 g; Average weight of mice [2, 13]: 24.02 g; Average weight of mice [2, 14]: 24.14 g; Average weight of mice [2, 15]: 24.5 g; Average weight of mice [2, 16]: 24.68 g; Average colon length of mice [2, 17]: 6.2 cm
5 | CC(=O)OC[C@H]1O[C@@H](OC2=C(C)OC(=C3CCOCC3)C2=O)[C@H](OC(C)=O)[C@@H](OC(C)=O)[C@@H]1OC(C)=O [Compound I-10] | – | 21.95 | 21.60 | 21.18 | 21.27 | 20.90 | 20.13 | 19.25 | 5.8 | – | – | – | – | – | – | – | – | – | – | – | –
6 | CC(C)=C1OC(C)=C(O[C@@H]2O[C@H](COC(=O)C(C)(C)C)[C@@H](OC(=O)C(C)(C)C)[C@H](OC(=O)C(C)(C)C)[C@H]2OC(=O)C(C)(C)C)C1=O [Compound I-6] | – | – | – | – | – | – | – | – | – | better than the positive control drug | significant improvement in the reduction of weight in mice | 26.9 | 26.94 | 26.9 | 26.9 | 26.64 | 26.2 | 24.52 | 24.38 | 24.42 | Average weight of mice [2, 12]: 24.42 g; Average weight of mice [2, 13]: 24.66 g; Average weight of mice [2, 14]: 24.94 g; Average weight of mice [2, 15]: 24.72 g; Average weight of mice [2, 16]: 24.5 g; Average colon length of mice [2, 17]: 5.9 cm
7 | CCOC(=O)OC[C@H]1O[C@@H](OC2=C(C)OC(=C(C)C)C2=O)[C@H](O)[C@@H](O)[C@@H]1O [Compound I-7] | – | 21.47 | 21.62 | 21.18 | 20.82 | 20.13 | 20.07 | 19.88 | 5.4 | – | – | – | – | – | – | – | – | – | – | – | –
8 | CC(=O)OC[C@H]1O[C@@H](OC2=C(C)OC(=C3CCN(C(C)=O)CC3)C2=O)[C@H](OC(C)=O)[C@@H](OC(C)=O)[C@@H]1OC(C)=O [Compound I-12] | – | 21.25 | 21.22 | 21.13 | 20.62 | 20.10 | 16.32 | 18.88 | 5.7 | – | – | – | – | – | – | – | – | – | – | – | –
9 | CC(=O)OC[C@H]1O[C@@H](OC2=C(C)OC(=C3CCCC3)C2=O)[C@H](OC(C)=O)[C@@H](OC(C)=O)[C@@H]1OC(C)=O [Compound I-8] | can gradually restore the colon length | 21.85 | 21.97 | 21.77 | 21.33 | 20.62 | 20.52 | 20.32 | 6.1 | – | – | – | – | – | – | – | – | – | – | – | –
10 | COC(=O)[C@H]1O[C@@H](OC2=C(C)OC(=C(C)C)C2=O)[C@H](OC(C)=O)[C@@H](OC(C)=O)[C@@H]1OC(C)=O [Compound I-5] | – | – | – | – | – | – | – | – | – | better than the positive control drug | significant improvement in the reduction of weight in mice | 26.9 | 26.92 | 26.88 | 26.9 | 26.58 | 26.32 | 25.3 | 23.6 | 23.24 | Average weight of mice [2, 12]: 23.24 g; Average weight of mice [2, 13]: 24.2 g; Average weight of mice [2, 14]: 24.48 g; Average weight of mice [2, 15]: 24.5 g; Average weight of mice [2, 16]: 24.68 g; Average colon length of mice [2, 17]: 6.0 cm
